# Test system: glaucoma-associated-EV-complex in POAG patient's aqueous humor
# Assay: Treating POAG aqueous humor samples with bimatoprost, EDC fixation, negative staining and TEM imaging
# Design: species or system human
# Excerpt: Methods for treating POAG aqueous humor samples with bimatoprost, and fixation of fluid with EDC, negative staining and TEM imaging. We sought to determine the effect of bimatoprost on EVs in aqueous humor of patients with glaucoma. To do this, we diluted the POAG aqueous humor sample with tris buffered saline (1:10 dilution) and added 1:1 volume of diluted POAG sample with either tris buffered saline (control) or bimatoprost. Lumigan was obtained directly from the dispensing bottle and was NOT diluted. 10 ul of POAG sample was mixed with 10 ul of TBS or 10 ul POAG sample was mixed with 10 ul of undiluted Lumigan. The tubes were then incubated in a thermocycler PCR machine and were allowed to sit for 72 hours at 37° C. The samples were then diluted (1:10). Next, we fixed with EDC on an electron microscopy grid using the following protocol. For 1 mls of EDC/ETT solution in 0.1 M 1-Methylimidazole buffer (pH 8.0). • 1. EDC-HCl powder should be stored at −20° C. under argon. To avoid condensation of humidity, only open bottles after they reached room temperature, i.e. take the bottle out of freezer 1 h before weighing out sample. • 2. EDC/5-ETT solution should be made at most 1 h prior to use. • 3. Pipette 5.76 ml of 0.1 M 1-Methylimidazole buffer (pH 8.0) into a 15 ml tube, vortex vigorously. • 4. Carefully spoon out the 0.078 g of ETT found in the “G” group, onto a piece of paper. Carefully pour the 0.078 g into the tube. • 5. Using the pH paper and pipet to check to be pH 8.0 • 6. Use a weighing paper to measure out 0.12 g of EDC. Carefully pour into the tube. Vortex vigorously. • 7. Discard unused solution. • 8. Using the pH paper and pipet to check to be pH 8.0 Poly L-lysine grids, EDC fixation, Glut-fixation, UA stain. • 1. Use formvar coated grids. • 2. Place them facing formvar side down to poly-lysine drops and let them sit for 5-10 min. • 3. Then you will withdraw the Poly-L-lysine • 4. Fasten down a piece of parchment paper to a 100 mm dish with tape or weight. Place grid down on parchment paper. Mix EDC solution with EVs • 1. Mix 2.5 ul of (Cold) EVs with 5 ul of (Cold) EDC solution in 1.5 ml siliconized tube. • 2. In the cold room, apply 5 μl sample (Aqueous humor) to the grid and wait 15 minutes to dry and for the EVs to settle to the bottom of the grid. • 3. Place in a humidified chamber and incubate at […] for at least 3 hours. Secondary Fixation with Glut • 1. Remove EDC-EV solution from the sample using a pipette. • 2. Fix with Glut, add 2-5 ul of glut fix and wait for 5 min • 3. Remove Glut with Pipet or lens paper Rinse Glut and EDC • 1. Apply water bubble to grid for 5 min • 2. Remove water bubble with pipette • 3. Add 5 ul of uranyl acetate onto grid (1 drop, blotting after the drop) • 4. Let grid dry, and place in grid box • 5. Take off stain with pipette Samples were then imaged with TEM. Treating large EV complexes with Bimatoprost breaks up the EV-complex, when compared to controls. To determine if glaucoma-associated-EV-aggregates visualized using the EDC fixation method were indeed a potential mediator of POAG, we hypothesized that treating it with a known glaucoma medication would change the morphology of the glaucoma-associated-EV-aggregates. Therefore, we opted to use Bimatoprost (lumigan), which is a ocular hypotensive agent that lowers IOP in normal, ocular hypertensive, and glaucomatous eyes. […]
smiles,measurement,setting,value
CCNC(=O)CCC/C=C\C[C@@H]1[C@@H](/C=C/[C@@H](O)CCc2ccccc2)[C@H](O)C[C@@H]1O [bimatoprost],evidence of large extracellular matrix or glaucoma-associated-EV-aggregates in TEM photographs,POAG aqueous humor samples treated with bimatoprost (FIG. 11 c-d),no evidence of large extracellular matrix nor glaucoma-associated-EV-aggregates
same,"number of glaucoma-associated-EV-complex, compared to POAG sample with placebo treatment","POAG patient's aqueous humor, first subject (FIG. 11), undiluted Lumigan 1:1 with 1:10 diluted sample, 37° C. for 72 hours, TEM",substantial reduction
same,"size of POAG-associated EV complexes, compared to untreated glaucoma samples","aqueous humor of a patient with POAG (FIG. 11), TEM",reduces the size
same,"size of POAG-associated EV complexes, compared to control-treated glaucoma samples","aqueous humor of second subject with glaucoma (FIG. 13), TEM",reduces the size
same,"number of glaucoma-associated-EV-complexes, compared to placebo (buffered saline)","second human subject with glaucoma (FIG. 12-13), 37° C. for 72 hours, TEM",substantial reduction
